From paper PMC8623398, “Investigation of the Mechanisms of Cytotoxic Activity of 1,3-Disubstituted Thiourea Derivatives” (Pharmaceuticals, 2021)
Several values for one entry are separate records, joined by “and”; a condition that tells them apart may be missing. Equal values may be shown once.

Tests used:
Type in all cases: cell-based, human
HaCaT cells [1] = assay: MTT assay, HaCaT normal cells; conditions: Homo sapiens, HaCaT, 72 h
Procedure: (§1) As a first step in assessing their cytotoxic properties, all thioureas of the series were assayed against four human carcinoma cell lines, such as SW480 (primary colon cancer), SW620 (metastatic colon cancer), PC3 (metastatic prostate cancer), and K-562 (chronic myelogenous leukemia), as well as against the normal cell line HaCaT (immortalized human keratinocytes). Table 1 lists the compound concentrations that produced 50% of growth inhibition (IC50, μM), generated by the MTT method, in comparison with two commonly used chemotherapeutic agents, doxorubicin and cisplatin.
(§2) The human primary (SW480), metastatic (SW620) colon cancer, metastatic prostate cancer (PC3), chronic myelogenous leukemia (K-562), and human immortal keratinocyte (HaCaT) cell lines were purchased from the American Type Culture Collection (ATCC, Rockville, MD, USA). The cells were cultured in medium according to protocols (MEM for SW480 and SW620, RPMI 1640 for PC3 and K-562, and DMEM for HaCaT cells), supplemented with 10% FBS, penicillin (100 U/mL) and streptomycin (100 μg/mL), and cultured in a 37 °C/5% CO2 humidified incubator. The cells were cultured until appropriate confluence was achieved (80–90%). Next, they were harvested by treatment with 0.25% trypsin (Gibco Life Technologies, Waltham, MA, USA) excluding the non-adherent K-562 cell line and used for studies.
(§3) Cells without the studied compounds in medium were used as a control.
(§4) The cell viability was assessed by determination of MTT salt [3-(4,5-dimethylthiazol-2-yl)-2,5-diphenyltetrazoliumbromide] conversion by mitochondrial dehydrogenase. The MTT assay was performed as previously described. Alternatively, non-adherent leukemic cells were centrifuged in a microplate centrifuge (400× g, 5 min) during the collection stages. Experiments were repeated three times. Cell viability was presented as a percent of MTT reduction in the treated cells versus the control cells. The number of viable cells cultured without the studied compounds was assumed as 100%. A decreased relative MTT level indicated decreased cell viability. Thiourea compounds with the highest cytotoxic potential assessed by MTT determination (with the lowest IC50) were chosen for subsequent assessments of cytotoxicity mechanisms.

K-562 cells [2] = assay: Trypan blue assay, K-562; conditions: K-562, 72 h; for Cell Number × 10^5 / Viability (%): compound at IC50 concentration; for reduction in live cell number: IC50 concentration, vs control
Procedure: (§5) In order to estimate the tumor and normal cell population density and their viability after treatment with compounds 1–3, 8, and 9, the trypan blue dye exclusion assay was performed. The live cell number of all cancerous cells incubated for 72 h with the studied thioureas was considerably lower in comparison with the controls (Table 2; Figure S1A). The highest reduction in cell amount was denoted for both colon SW480 and SW620 cells treated with the dichlorophenyl derivative 2, and it accounted for 93%. […] Similarly, a noticeable decline in both colon cancer cell populations was observed after treatment with the ortho-substituted compound 8. The number of live cells equaled 12% and 18%, respectively, as compared to controls. This thiourea also led to a reduction of PC3 cells of 38%, and leukemia K-562 cell lines of 27%. The number of SW620 and PC3 cells decreased by 72% and 63% in the presence of para-substituted compound 9. However, the reducing influence of this thiourea on the number of other cancerous cells was at the level of 21–32%. […] A significant effect on the other studied pathological cells was also noticed and accounted for 32–46%. Furthermore, the derivative 3 reduced the amount of live cancer cells by 32–59%, of which its decreasing impact on colon cancer cells was the greatest.
(§6) The live cell count was assessed by the trypan blue exclusion dye assay using an automated cell counter (CountessTM Invitrogen, Waltham, MA, USA). Untreated cells were used as the control.

IL-6 level, SW620 cells = assay: IL-6 level ELISA, SW620; conditions: SW620, 72 h; for IL-6 Concentration: compound at IC50 concentration, ELISA; for reduction (inhibition) of IL-6 level: IC50 concentration, vs control
Procedure: Because of the low secretion of IL-6 by leukemic cells compared to solid tumors, and in addition to the lack of IL-6 receptors in K-562 cells, studies of the effect of derivatives 1–3, 8, and 9 on the inhibition of IL-6 release were carried out on primary and secondary solid tumor cells (SW480, SW620, and PC3). A remarkable inhibition of the IL-6 level was denoted for both colon cancer cell lines. Compound 2, identified as the strongest inhibitor, reduced the interleukin level by 54% (in SW480 cells) and 63% (SW620 cells). A significant effect was also observed in these cells for its structural isomer 3 (39% and 23% of inhibition, respectively). Additionally, compound 3 considerably affected the IL-6 level produced by PC3 cells, and reduced it by 33%. Similarly, the treatment with derivative 1 was effective for both colon cancer cells. In its presence, IL-6 release decreased by 28–36%, as compared to controls. For monosubstituted derivatives 8 and 9, the observed IL-6-reducing influence was weaker. They both inhibited IL-6 secretion in SW480 and SW620 cell lines by 25–32%. In contrast to compound 9, thiourea 8 additionally diminished the cytokine level in PC3 cells by 26%.
The IL-6 concentration in all studied cancer cells and normal HaCaT cell lines was measured by an ELISA kit (Diaclon SAS Besancon CEDEX, Besançon, France). […] IL-6 in cell culture supernatant was measured using the enzyme-linked immunosorbent assay in accordance with the manufacturer’s protocol.

K-562 cells [3] = assay: Annexin V-FITC/PI flow cytometry, K-562; conditions: K-562, 72 h, IC50 concentration
Procedure: To estimate the mechanism of anticancer activity of the selected compounds 1–3, 8, and 9, their effect on both early and late apoptosis was evaluated by flow cytometry analysis. […] Additionally, visible late apoptosis-inducing properties in these cell lines were denoted for the compound 9 (47% ± 3.0%), which was twice as strong towards the colon tumor cells mentioned above. The apoptotic properties of analogs 3 and 8 in K-562 cells varied from 30% ± 1.6% to 33% ± 2.3%. […] Whereas the apoptosis-generating influence of derivatives 2 and 3 on normal keratinocytes was higher (29% and 23%), their selectivity measured by MTT methods is favorable. The obtained results are in agreement with the IC50 values assigned to pathological cancer cell lines. The cells were cultured and harvested under the conditions described in Section 3.2.1. […] The effect of these compounds on the process of early and late apoptosis and necrosis was determined as described previously by dual staining with Annexin V:FITC and propidium iodide, according to the manufacturer’s protocol (Becton Dickinson). The cells that were Annexin V:FITC positive and PI negative were identified as early apoptotic, and Annexin V:FITC and PI positive as late apoptotic or necrotic.

PC3 cells = assay: Trypan blue assay, PC3; conditions: PC3, 72 h; for Cell Number × 10^5 / Viability (%): compound at IC50 concentration; for reduction in live cell number: IC50 concentration, vs control
Procedure: as §5, §6

SW620 cells = assay: MTT assay, SW620; conditions: Homo sapiens, SW-620, 72 h, 50% growth inhibition
Procedure: as §1, §2, §3, §4

Trypan blue assay, HaCaT = conditions: human, HaCaT cells, compound at IC50 concentration
Procedure: as §5, §6

HaCaT cells [4] = assay: Trypan blue assay, HaCaT; conditions: 72 h, compound at IC50 concentration
Procedure: as §5, §6

SMILES	IC50 (SW620 cells)	IC50 (HaCaT cells [1])	Cell Number × 10^5 (K-562 cells [2])	Viability (%) (K-562 cells [2])	IL-6 Concentration (IL-6 level, SW620 cells)	cells in late apoptosis (K-562 cells [3])	Cell Number × 10^5 (PC3 cells)	Viability (%) (PC3 cells)	viability at 72 h (Trypan blue assay, HaCaT)	Cell Number × 10^5 (HaCaT cells [4])	reduction in live cell number (K-562 cells [2])	reduction (inhibition) of IL-6 level (IL-6 level, SW620 cells)	reduction in live cell number (PC3 cells)
Fc1ccc(NC(=S)Nc2cccc(C(F)(F)F)c2)cc1Cl [Compound 1, 1-(3-chloro-4-fluorophenyl)-3-[3-(trifluoromethyl)phenyl]thiourea]	9.4 ± 1.85 µM	43.6 ± 4.22 µM	1.8 ± 0.24 × 10^5	93 ± 2.05%	4.9 ± 0.01 pg/mL	74% ± 3.8%	2.3 ± 0.15 × 10^5	93 ± 1.50%	97 ± 1.33%	6.5 ± 0.15 × 10^5			
FC(F)(F)c1ccc(NC(=S)Nc2cccc(C(F)(F)F)c2)cc1 [Compound 8, 1-[3-(trifluoromethyl)phenyl]-3-[4-(trifluoromethyl)phenyl]thiourea]	7.6 ± 1.75 µM	41.3 ± 0.17 µM	3.2 ± 0.14 × 10^5	88 ± 1.10%	5.8 ± 0.06 pg/mL		2.1 ± 0.12 × 10^5	82 ± 1.10%	98 ± 1.02%	4.9 ± 0.28 × 10^5	27%		38%
FC(F)(F)c1cccc(NC(=S)Nc2ccc(Cl)cc2)c1 [Compound 9, 1-(4-chlorophenyl)-3-[3-(trifluoromethyl)phenyl]thiourea]	6.7 ± 1.74 µM	71.5 ± 3.08 µM	3.5 ± 0.22 × 10^5	90 ± 2.40%	5.2 ± 0.03 pg/mL	47% ± 3.0%	1.2 ± 0.15 × 10^5	73 ± 1.99%	98 ± 1.5%	8.6 ± 0.12 × 10^5			63%

Now from value to compound, other results behind:

IC50 (SW620 cells)	SMILES	IC50 (HaCaT cells [1])	Cell Number × 10^5 (K-562 cells [2])	Viability (%) (K-562 cells [2])	IL-6 Concentration (IL-6 level, SW620 cells)	cells in late apoptosis (K-562 cells [3])	Cell Number × 10^5 (PC3 cells)	Viability (%) (PC3 cells)	viability at 72 h (Trypan blue assay, HaCaT)	Cell Number × 10^5 (HaCaT cells [4])	reduction in live cell number (K-562 cells [2])	reduction (inhibition) of IL-6 level (IL-6 level, SW620 cells)	reduction in live cell number (PC3 cells)
1.5 ± 0.72 µM	FC(F)(F)c1cccc(NC(=S)Nc2ccc(Cl)c(Cl)c2)c1 [Compound 2, 1-(3,4-dichlorophenyl)-3-[3-(trifluoromethyl)phenyl]thiourea]	24.7 ± 0.05 µM	1.0 ± 0.21 × 10^5	55 ± 1.03%	2.8 ± 0.03 pg/mL	73% and 73% ± 2.0%	2.4 ± 0.16 × 10^5	93 ± 1.40%	84 ± 1.03%	1.6 ± 0.31 × 10^5	66%	63%	69%
5.8 ± 0.76 µM	FC(F)(F)c1cccc(NC(S)=Nc2ccc(Cl)cc2Cl)c1 [Compound 3, 1-(2,4-dichlorophenyl)-3-[3-(trifluoromethyl)phenyl]thiourea]	52.1 ± 0.95 µM	3.0 ± 0.27 × 10^5	85 ± 1.20%	5.9 ± 0.03 pg/mL		1.8 ± 0.18 × 10^5	58 ± 1.20%	96 ± 3.01%	7.8 ± 0.14 × 10^5		23%	
